33 compounds from the SangsterLogP compilation can be followed below.

Molecules are shown by their SMILES.

The nature of the first data set: method code SF-HPLC, from DOI: 10.1248/cpb.44.1338.
What is called logP is a log measure of how a compound divides between an organic and an aqueous phase. Turning to `CN(C)C(=O)Oc1ccc(Br)cc1`, the logP is 2.46. On the same count and under the same terms, in the case of `CN(C)C(=O)Oc1cccc(F)c1` it was 1.75; in that of `CN(C)C(=O)Oc1cccc(C#N)c1`, 1.23.

`CN(C)C(=O)Oc1cccc(N(C)C)c1`: the lipophilicity (logP) worked out at 1.93. For `CN(C)C(=O)Oc1cccc([N+](=O)[O-])c1`, the logP is 1.56.

For the compound `CCc1cccc(OC(=O)N(C)C)c1`, the logP worked out at 2.47. As to `CCCc1ccc(OC(=O)N(C)C)cc1`, the logP was 3.15.

Take `CN(C)C(=O)Oc1ccc(C#N)cc1`: the logP came to 1.21.

Assay in the next data set: not given
Compound `CC(C)c1ccc(OC(=O)N(C)C)cc1` returned a logP of 3.07.

In turn, `CCOc1cccc(OC(=O)NC)c1` gave a logP of 1.82. The same measure, in the same setting: the figure for `CC(=O)c1ccc(OC(=O)N(C)C)cc1` is 1.23; for `CNC(=O)Oc1ccc(F)cc1` it is 1.35.

The compound `CNC(=O)Oc1ccc(C)cc1` yielded a logP of 1.73. The compound `Cc1ccc(OC(=O)N(C)C)cc1` gave a logP of 2.1. For the compound `CNC(=O)Oc1cccc(C#N)c1`, the logP is 1.01.

The compound `CCc1cccc(OC(=O)NC)c1` showed a logP of 2.23. Regarding `CNC(=O)Oc1ccc(OC)cc1`, the logP was 1.23.

The compound `CNC(=O)Oc1ccc(I)cc1` showed a logP of 2.34.

`CCOc1ccc(OC(=O)NC)cc1` showed a logP of 1.75.

`CCC(C)c1ccc(OC(=O)N(C)C)cc1` (stereo not drawn): the logP stood at 3.6. The same measure, in the same setting: the figure for `CNC(=O)Oc1cccc(OC)c1` is 1.34; for `CNC(=O)Oc1cccc([N+](=O)[O-])c1` it is 1.37; for `CN(C)C(=O)Oc1ccc(Cl)cc1` it is 2.23. `CN(C)C(=O)Oc1ccc(F)cc1` displayed a logP of 1.65. Same read-out and setting: in the case of `CCc1ccc(OC(=O)N(C)C)cc1` it was 2.58; in that of `CNC(=O)Oc1cccc(C(C)=O)c1`, 0.97. `CNC(=O)Oc1cccc(I)c1` registered a logP of 2.33. Turning to `CN(C)C(=O)Oc1cccc(Cl)c1`, the logP was 2.26. Consider `CCC(=O)c1cccc(OC(=O)NC)c1`, for which the logP is 1.51.

Compound `CNC(=O)Oc1cccc(N(C)C)c1` displayed a logP of 1.64. In the case of `CN(C)C(=O)Oc1ccc([N+](=O)[O-])cc1`, the logP worked out at 1.54. On the same count and under the same terms, in the case of `CCc1ccc(OC(=O)NC)cc1` it was 2.27; in that of `CNC(=O)Oc1cccc(C)c1`, 1.73.
